According to article PMC5612938, “A multiple biomarker assay for quality assessment of botanical drugs using a versatile microfluidic chip” (Scientific Reports, 2017):
Marks after values point to notes of the source that are not given here.

Tests used:
[1] = target: T1, Thrombin (from human plasma) (Homo sapiens, UniProt P00734); test: on-chip affinity screening, binding degree by LC-MS peak area vs protein-free control (thrombin); conditions: for thrombin; [(As − Ac)/As] × 100, sample vs protein-free control, EIC peak area
T1 construct: Thrombin (from human plasma); purchased Sigma-Aldrich; host or cells: human plasma
Source text: In addition to quality assessment, the microfluidic chip can also function as “affinity chromatography” to identify bioactive constituents from botanical drugs in a convenient and efficient manner. After the bioassay, the bound phytochemicals were dissociated from the enzymes and accurately identified by LC-MS. The material used for the chambers in microfluidic system, polydimethylsiloxane (PDMS), is apt to adsorb small molecules nonspecifically, thus a protein-free control was applied to reflect the degree of nonspecific binding of compounds to the chip. Peak areas were obtained from the extracted ion chromatography (EIC) in an ion-trap mass spectrometry (IT-MS), and binding degree (binding degree % = [(As − Ac)/As] × 100, where As and Ac were the peak area in the sample and control, respectively) was calculated to indicate binding specificity. […] All these peaks were unambiguously confirmed via comparisons with chemical standards in terms of retention time and mass spectra (Table 2), and five thrombin inhibitors (danshensu, salvianolic acid B, salvianolic acid C, rosmarinic acid and ginsenoside Rg1) and six ACE inhibitors (astragaloside IV, ononin, formononetin, calycosin, danshensu and salvianolic acid B) were preliminarily identified. […] Enzyme inhibition assays of these hit compounds were then performed to verify the screening results. […] Compounds showing an inhibition rate over 70% were subjected to IC50 measurement.
(§1) MBs (10 mg/mL) were diluted 10 times in PB or Tris-HCl buffer, and 10 μL of the diluted MBs (1 mg/mL) were injected into one channel of the chip using a syringe infusion pump (Harvard Apparatus, USA) and retained by an external magnet. Then, 10 μL of thrombin or ACE solution was added and incubated with MBs for two hours at room temperature to form enzyme-MB complexes. The magnet was manually controlled to move MBs back and forth to enhance the ratio of reaction. Subsequently, MBs were washed twice in assay buffer and magnetically transferred to the other channel through the fluidic bridge, whose opening and closing was controlled by a pneumatic valve. Next, 10 μL of sample solutions of tested drug and 10 μL of enzymatic substrate were sequentially infused to the channel by the pump and incubated with the enzyme. When the enzymatic reaction was finished, the MBs were retained in the channel, and air was injected into the channel from the inlet using a syringe to push all the reacted solution to a 384-well plate. The absorbance of the solution was then monitored at 405 nm (for S-2238) or 340 nm (for FAPGG) using an Infinite F200 spectrophotometer (Tecan, Männedorf, Switzerland). Moreover, after detection, the reaction channel was washed three times by assay buffer to remove unbound constituents. 20 μL of 80% aqueous methanol was then injected and incubated with MBs for one hour to dissociate the bound constituents. The resulting solutions of replicates were combined, evaporated by a centrifugal evaporator, reconstituted in 80% aqueous methanol, centrifuged at 10,000 rpm for 10 min, and analyzed by LC-MS for chemical identification.
An Agilent 1100 HPLC system (Agilent Technologies, Waldbronn, Germany) coupled with an LCQ Deca XP^plus IT-MS (Thermo Finnigan, San Jose, CA, USA) equipped with an electrospray ionization (ESI) interface was employed for structure elucidation of the bounded constituents. […]

[2] = target: T1, Thrombin (from human plasma); test: on-chip thrombin inhibition assay (S-2238 hydrolysis, absorbance 405 nm); assay type: biochemical; design: key to IC50 (μM) or inhibition rate: /: No obvious inhibition observed; conditions: for thrombin inhibition (in words): at tested concentrations
Experimental: To enhance the performance of the on-chip assay, experimental parameters such as concentrations of enzymes and substrates, substrate reaction time, and incubation time of samples and enzymes were stepwise optimized. The activity of thrombin was determined by measuring the hydrolysis of chromogenic substrate S-2238 (HD-Phe-Pip-Arg-pNA) at 405 nm. As depicted in Fig. 2a, the absorbance increased rapidly along with the elevated concentrations of thrombin, while it reached a plateau at 0.5 U/mL. […] Moreover, it was clear from Fig. 2d that the maximum inhibitory effect of QSYQ sample (I1 of Table 1 in this assay) on thrombin was observed after 60 min of incubation. Therefore, to achieve favorable response and prevent signal saturation, optimal assay conditions for thrombin were determined to be 0.2 U/mL, 0.31 mM, 30 min and 60 min for the final concentrations of thrombin and S-2238, substrate reaction time and incubation time, respectively. […] In this assay, the concentrations of ACE and FAPGG were finally set at 0.027 U/mL and 0.72 mM, where the background value was lower and the reaction time was relatively shorter (30 min).
The optimized protocol was first applied to assess the quality of 11 batches of QSYQ intermediates (Table 1). Enzyme inhibition (in percentages) was employed as an indicator of drug quality and calculated according to the following equations: thrombin inhibition (%) = [1 − (AQSYQ/Ablank)] × 100; ACE inhibition (%) = [1 − (ΔAQSYQ/ΔAblank)] × 100; where AQSYQ and Ablank were the absorbance of the test sample and the blank sample after the enzymatic reaction (the background value was subtracted), and ΔAQSYQ and ΔAblank were the absorbance decrease between 0 min and 30 min of the samples. A scatter plot was generated to display the inhibition result of thrombin and ACE simultaneously. […] Moreover, artificial abnormal samples I6, I7 and I8, each with one abnormal (pre-extracted) herb, presented relatively lower inhibitions compared with I1.
Thrombin (from human plasma), ACE (from rabbit lung), FAPGG and captopril were purchased from Sigma-Aldrich (St. Louis, USA). S-2238 was obtained from Aglyco (Beijing, China). AEBSF-HCl was purchased from Selleckchem (Houston, USA). Trizma base (Tris) was obtained from Sangon Biotech (Shanghai, China) and dimethyl sulfoxide (DMSO) from J&K Scientific (Beijing, China). All other chemicals were purchased from Sinopharm Chemical (Shanghai, China) unless otherwise indicated. 0.2 M Phosphate buffer (PB, pH 6.5), and 50 mM Tris-HCl buffer (200 mM NaCl, pH 8.3) were prepared as assay buffers for thrombin and ACE, respectively.
as §1, with “20 μL of 80% aqueous methanol was then injected and incubated with MBs for one hour to dissociate the bound constituents. The resulting solutions of replicates were combined, evaporated by a centrifugal evaporator, reconstituted in 80% aqueous methanol, centrifuged at 10,000 rpm for 10 min, and analyzed by LC-MS for chemical identification.” left out

Row | SMILES | Binding degree (%) [1] | IC50 (μM) or inhibition rate ([2]; for thrombin, symbol / = no obvious inhibition) | thrombin inhibition (in words) [2] | IC50 ([2]; for thrombin)
1 | CC(C)=CCC[C@](C)(O[C@@H]1O[C@H](CO)[C@@H](O)[C@H](O)[C@H]1O)[C@H]1CC[C@]2(C)[C@@H]1[C@H](O)C[C@@H]1[C@@]3(C)CC[C@H](O)C(C)(C)[C@@H]3[C@@H](O[C@@H]3O[C@H](CO)[C@@H](O)[C@H](O)[C@H]3O)C[C@]12C [Ginsenoside Rg1] | 20.6^c % | /^g |  | 
2 | O=C(/C=C/c1ccc(O)c(O)c1)O[C@H](Cc1ccc(O)c(O)c1)C(=O)O [Rosmarinic acid] | 67.4^c % |  | good thrombin inhibitions | 92 µM
3 | O=C(/C=C/c1ccc(O)c2oc(-c3ccc(O)c(O)c3)cc12)O[C@H](Cc1ccc(O)c(O)c1)C(=O)O [Salvianolic acid C] | 100^c % |  | good thrombin inhibitions | 180 µM
